Results published in patent US11970479B2, “3-(1H-pyrazol-4-yl)pyridine allosteric modulators of the M4 muscarinic acetylcholine receptor” (Merck Sharp & Dohme LLC, priority 2018, dated 2024).
pEC50: −log10 of the molar value.

Molecular target: T1, human M4 muscarinic acetylcholine receptor (Homo sapiens, UniProt P08173)
T1 construct: expressed in transfected cells
T1 sequence (P08173 1-479): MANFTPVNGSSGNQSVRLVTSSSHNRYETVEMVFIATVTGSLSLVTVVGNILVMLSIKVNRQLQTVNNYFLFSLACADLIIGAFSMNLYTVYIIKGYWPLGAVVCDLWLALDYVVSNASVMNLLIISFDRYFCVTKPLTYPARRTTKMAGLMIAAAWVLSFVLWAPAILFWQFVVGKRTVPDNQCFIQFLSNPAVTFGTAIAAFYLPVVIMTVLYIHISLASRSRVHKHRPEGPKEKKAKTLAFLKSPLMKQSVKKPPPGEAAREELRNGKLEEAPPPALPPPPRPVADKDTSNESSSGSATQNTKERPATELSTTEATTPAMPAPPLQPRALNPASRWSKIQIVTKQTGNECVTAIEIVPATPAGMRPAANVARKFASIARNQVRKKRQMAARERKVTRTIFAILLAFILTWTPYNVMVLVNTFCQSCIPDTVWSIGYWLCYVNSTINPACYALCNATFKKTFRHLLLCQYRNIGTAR
Experiment: human FLIPR-based M4 PAM assay (CHO-K1 cells with human M4 receptor and Gαqi5, calcium dye fluorescence, EC20 acetylcholine)
Type: cell-based
Settings: inflection point (IP) of the dose response curve, human M4 receptor/Gαqi5, acetylcholine at 20% of maximum response, read-out: M4PAM Hu IP
Protocol: (§1) In a typical experiment the M4 muscarinic acetylcholine receptor modulating activity of the compounds of the present invention was determined in accordance with the following experimental method. CHO-K1 cells stably transfected with human M4 receptor and chimeric G-protein Gαqi5 (Coward P, et al., Analytical Biochemistry, 270:242-248 (1999)) are thawed from liquid N2 storage, resuspended in growth medium, plated in black, clear bottom 384 well plates, and incubated 16-20 hours at 37° C., 5% CO2. On the day of assay, growth medium is removed, the cells are washed 2 times with wash buffer, and cells are incubated in dye loading buffer at 37° C., 5% CO2 for ˜1 hour. Following dye loading the cell plates are placed in a FLIPR Tetra instrument and while monitoring dye fluorescence (excitation […]), 10 uL of test substance at increasing concentrations is added, and fluorescence values are recorded for 4 min. Next, 10 uL of acetylcholine is added (final concentration calculated so as to achieve 20% of the maximum acetycholine response), and the fluorescence reading is continued for 3.5 min. In some cases, a third addition of acetylcholine (final concentration calculated to achieve 70% of the maximal acetylcholine response) is performed. The resulting dose response curves are fit to a 4 parameter logistic equation and the final result is determined as the inflection point (IP) of the curve
as §1, with “CHO-K1” for “In a typical experiment the M4 muscarinic acetylcholine receptor modulating activity of the compounds of the present invention was determined in accordance with the following experimental method. CHO-K1”, “Gαqi5” for “Gαqi5 (Coward P, et al., Analytical Biochemistry, 270:242-248 (1999))”, “performed.” for “performed. The resulting dose response curves are fit to a 4 parameter logistic equation and the final result is determined as the inflection point (IP) of the curve”

Row | SMILES | pEC50
1 | N#Cc1ccc(-c2cnn(CC3(C(F)(F)F)CC3)c2F)c(-c2ccc3cccnc3c2)n1 [Example 59, 5-(5-fluoro-1-{[1-(trifluoromethyl)cyclopropyl]methyl}-1H-pyrazol-4-yl)-6-quinolin-7-ylpyridine-2-carbonitrile] | 7.24
2 | CC(C)C(=O)Cn1cc(-c2ccc(C#N)nc2-c2ccc3cccnc3c2)cn1 [Example 60, 5-[1-(3-methyl-2-oxobutyl)-1H-pyrazol-4-yl]-6-quinolin-7-ylpyridine-2-carbonitrile] | 6.74
3 | CC(C)C(F)(F)Cn1cc(-c2ccc(C#N)nc2-c2ccc3cccnc3c2)cn1 [Example 61, 5-[1-(2,2-difluoro-3-methylbutyl)-1H-pyrazol-4-yl]-6-quinolin-7-ylpyridine-2-carbonitrile] | 7.59
4 | CC(C)CCn1cc(-c2cccnc2-c2ccc3ccc(Cl)nc3c2)cn1 [Example 62, 2-chloro-7-{3-[1-(3-methylbutyl)-1H-pyrazol-4-yl]pyridin-2-yl}quinoline] | 7.08
5 | CC(C)CCn1cc(-c2ccc(Cl)nc2-c2ccc3cccnc3c2)cn1 [Example 63, 7-{6-chloro-3-[1-(3-methylbutyl)-1H-pyrazol-4-yl]pyridin-2-yl}quinoline] | 7.59
6 | CC(C)CCn1cc(-c2c(Cl)ccnc2-c2ccc3cccnc3c2)cn1 [Example 64, 7-{4-chloro-3-[1-(3-methylbutyl)-1H-pyrazol-4-yl]pyridin-2-yl}quinoline] | 6.53
7 | CC(C)CCn1cc(-c2ccc(F)nc2-c2ccc3cccnc3c2)cn1 [Example 65, 7-{6-fluoro-3-[1-(3-methylbutyl)-1H-pyrazol-4-yl]pyridin-2-yl}quinoline] | 7.02
8 | CC(C)CCn1cc(-c2ccc(C#N)nc2-c2ccc3cccnc3c2)cn1 [Example 66, 5-[1-(3-methylbutyl)-1H-pyrazol-4-yl]-6-quinolin-7-ylpyridine-2-carbonitrile] | 7.62
9 | CC(C)CCn1cc(-c2ccc(C3=CCOCC3)nc2-c2ccc3cccnc3c2)cn1 [Example 67, 7-{6-(3,6-dihydro-2H-pyran-4-yl)-3-[1-(3-methylbutyl)-1H-pyrazol-4-yl]pyridin-2-yl}quinoline] | 6.92
10 | CC(C)CCn1cc(-c2ccc(-c3ccnn3C)nc2-c2ccc3cccnc3c2)cn1 [Example 68, 7-{3-[1-(3-methylbutyl)-1H-pyrazol-4-yl]-6-(1-methyl-1H-pyrazol-5-yl)pyridin-2-yl}quinoline] | 6.93
11 | CCCc1ccc(-c2cnn(CCC(C)C)c2)c(-c2ccc3cccnc3c2)n1 [Example 69, 7-{3-[1-(3-methylbutyl)-1H-pyrazol-4-yl]-6-propylpyridin-2-yl}quinoline] | 6.73
12 | CC(C)CCn1cc(-c2ccc(C3CC3)nc2-c2ccc3cccnc3c2)cn1 [Example 70, 7-{6-(cyclopropyl)-3-[1-(3-methylbutyl)-1H-pyrazol-4-yl]pyridin-2-yl}quinoline] | 6.63
13 | Cc1cnc(-c2ccc3cccnc3c2)c(-c2cnn(CCC(C)C)c2)c1 [Example 71, 7-{5-methyl-3-[1-(3-methylbutyl)-1H-pyrazol-4-yl]pyridin-2-yl}quinoline] | 6.65
14 | C=Cc1ccc(-c2cnn(CCC(C)C)c2)c(-c2ccc3cccnc3c2)n1 [Example 72, 7-{6-ethenyl-3-[1-(3-methylbutyl)-1H-pyrazol-4-yl]pyridin-2-yl}quinoline] | 6.72
15 | CCc1ccc(-c2cnn(CCC(C)C)c2)c(-c2ccc3cccnc3c2)n1 [Example 73, 7-{6-ethyl-3-[1-(3-methylbutyl)-1H-pyrazol-4-yl]pyridin-2-yl}quinoline] | 6.85
16 | CC(C)CCn1cc(-c2ccc(Br)nc2-c2ccc3cccnc3c2)cn1 [Example 74, 7-{6-bromo-3-[1-(3-methylbutyl)-1H-pyrazol-4-yl]pyridin-2-yl}quinoline] | 7.41
17 | COCCOc1ccc(-c2cnn(CCC(C)C)c2)c(-c2ccc3cccnc3c2)n1 [Example 75, 7-{6-(2-methoxyethoxy)-3-[1-(3-methylbutyl)-1H-pyrazol-4-yl]pyridin-2-yl}quinoline] | 6.91
18 | CSc1cnc(-c2ccc3cccnc3c2)c(-c2cnn(CCC(C)C)c2)c1 [Example 76, 7-{3-[1-(3-methylbutyl)-1H-pyrazol-4-yl]-5-(methylsulfanyl)pyridin-2-yl}quinoline] | 7.20
19 | COc1cc2ccc(-c3nc(C)ccc3-c3cnn(CCCC(F)(F)F)c3)cc2nn1 [Example 77, 3-methoxy-7-{6-methyl-3-[1-(4,4,4-trifluorobutyl)-1H-pyrazol-4-yl]pyridin-2-yl}cinnoline] | 6.57

Next, values leading:

Row | pEC50 | SMILES
20 | 6.72 | COc1cc2ccc(-c3nc(C)ccc3-c3cnn(CC4CC(F)(F)C4)c3)cc2nn1 [Example 78, 7-(3-{1-[(3,3-difluorocyclobutyl)methyl]-1H-pyrazol-4-yl}-6-methylpyridin-2-yl)-3-methoxycinnoline]
21 | 6.78 | COc1cc2ccc(-c3nc(C)ccc3-c3cnn(CCC4CC(F)(F)C4)c3)cc2nn1 [Example 79, 7-(3-{1-[2-(3,3-difluorocyclobutyl)ethyl]-1H-pyrazol-4-yl}-6-methylpyridin-2-yl)-3-methoxycinnoline]
22 | 6.81 | COc1cc2ccc(-c3nc(C)ccc3-c3cnn(CCCC(F)=C(F)F)c3)cc2nn1 [Example 80, 3-methoxy-7-{6-methyl-3-[1-(4,5,5-trifluoropent-4-en-1-yl)-1H-pyrazol-4-yl]pyridin-2-yl}cinnoline]
23 | 6.64 | COc1cc2ccc(-c3nc(C)ccc3-c3cnn(CCC4CCOC4)c3)cc2nn1 (centres unmarked) [Example 81, 3-methoxy-7-(6-methyl-3-{1-[2-(tetrahydrofuran-3-yl)ethyl]-1H-pyrazol-4-yl}pyridin-2-yl)cinnoline]
24 | 6.74 | COc1cc2ccc(-c3nc(C)ccc3-c3cnn(CC4CCOC4)c3)cc2nn1 (centres unmarked) [Example 82, 3-methoxy-7-{6-methyl-3-[1-(tetrahydrofuran-3-ylmethyl)-1H-pyrazol-4-yl]pyridin-2-yl}cinnoline]
25 | 7.00 | COc1cc2ccc(-c3nc(C)ccc3-c3cnn(CC4CC5(CCC5)C4)c3)cc2nn1 [Example 83, 3-methoxy-7-{6-methyl-3-[1-(spiro[3.3]hept-2-ylmethyl)-1H-pyrazol-4-yl]pyridin-2-yl}cinnoline]
26 | 6.70 | COc1cc2ccc(-c3nc(C)ccc3-c3cnn(CC(C)(C)C#N)c3)cc2nn1 [Example 84, 3-{4-[2-(3-methoxycinnolin-7-yl)-6-methylpyridin-3-yl]-1H-pyrazol-1-yl}-2,2-dimethylpropanenitrile]
27 | 6.70 | COc1cc2ccc(-c3nc(C)ccc3-c3cnn(CCC(C)(C)C#N)c3)cc2nn1 [Example 85, 4-{4-[2-(3-methoxycinnolin-7-yl)-6-methylpyridin-3-yl]-1H-pyrazol-1-yl}-2,2-dimethylbutanenitrile]
28 | 7.16 | COc1cc2ccc(-c3nc(C)ccc3-c3cnn(CC4(F)CCCCC4)c3)cc2nn1 [Example 86, 7-(3-{1-[(1-fluorocyclohexyl)methyl]-1H-pyrazol-4-yl}-6-methylpyridin-2-yl)-3-methoxycinnoline]
29 | 7.20 | COc1cc2ccc(-c3nc(C)ccc3-c3cnn(CC4(C)CCOCC4)c3)cc2nn1 [Example 87, 3-methoxy-7-(6-methyl-3-{1-[(4-methyltetrahydro-2H-pyran-4-yl)methyl]-1H-pyrazol-4-yl}pyridin-2-yl)cinnoline]
